Experimental findings from the NIST ThermoML archive (doi:10.1016/j.jct.2016.07.001) are described below.

The conditions of series [1]: Crystal; DTA.
A short description of series [2]: Molar enthalpy of transition or fusion. To be noted: Crystal; DSC.

± gives the expanded uncertainty stated by the source.

Take `O=S(=O)(c1ccc(O)cc1)c1ccccc1O` [2,4'-dihydroxydiphenyl sulfone]: the Normal melting temperature in series [1] amounted to 182.20 ± 1.1 °C. Also, the “Molar enthalpy of transition or fusion” value in series [2] was found to be 10.2 ± 0.263 kcal/mol.
